Paper PMC10979003, “Development and crystal structures of a potent second-generation dual degrader of BCL-2 and BCL-xL” (Nature Communications, 2024)
Residues, ends and D or L forms follow the SMILES beside them. *: point of attachment. Cbz = O=C(OCc1ccccc1)*

Columns and labels:
RS4 B-ALL cells = assay: Potency against RS4 B-ALL cells in vitro; format: cell-based
human platelets = assay: Potency against human platelets in vitro; format: cell-based; details: Platelet; human platelets in vitro
BCL-xL/BCL-2 = assay: Blocking of WH244-induced BCL-xL/BCL-2 degradation in Jurkat cells (immunoblot); format: cell-based, human; details: for Effect of proteasome / NEDD8-activating enzyme inhibition on WH244-mediated degradation of BCL-xL and BCL-2: Jurkat cells
Protocol: The data are presented as mean ± s.d. from three replicate cell cultures in a representative experiment for Jurkat cells. h Left, WH244 induces polyubiquitination of WT, K22R BCL-2 and to some extent K17R but not K17/22R BCL-2 in 293T cells. 293T cells were co-transfected as indicated with Flag-BCL−2 WT or mutants and HA-tagged ubiquitin (HA-Ub) plasmids. After 36 h, cells were pretreated with MG132 (10 µM) for 2 h and then treated with or without WH244 (1 μM) for 5 h. The Flag-tagged proteins were immunoprecipitated (IP) and immunoblotted with HA or Flag antibody. Right, The input blot for this assay. Data are a representative of two independent experiments. Source data are provided as Source Data file.
A series of experiments were performed to assess the efficacy of WH244. […] These DC50 values were ~6.2 and 6.8-fold better than of 753b for BCL-xL (DC50 of 3.7 nM) and BCL-2 (DC50 of 50 nM), respectively. Also, WH244-mediated proteolysis of BCL-xL and BCL-2 was time-dependent with BCL-xL degrading faster than BCL-2 (Fig. 3c). […]
Cells were collected, washed once with ice-cold phosphate-buffered saline, pH 7.2 (PBS, cat. no. 20012027; Thermo Fisher Scientific) and lysed in RIPA lysis buffer (Cat. No. BP-115DG, Boston Bio Products, Ashland, MA, USA) supplemented with protease and phosphatase inhibitor cocktails (Cat. No. PPC1010, Sigma-Aldrich, St. Louis, MO, USA) through sonication. […] The protein concentration in the supernatants was determined using the Pierce BCA protein Assay kit (cat. no. 23225, Thermo Fisher Scientific). […] The membranes were blocked with non-fat dry milk (5% wt/vol) in 1×Tris- buffered saline-Tween-20 (TBST) for 1 h at room temperature, and were subsequently probed with primary antibodies at a pre-determined optimal concentration in non-fat dry milk (5% wt/vol in TBST) overnight at 4 °C. […] Following sufficient washing with TBST, the membranes were exposed with ECL Western Blotting Substrate (Bio-Rad), and the signal was detected using the ChemiDoc MP Imaging System (Bio-Rad) and quantified using the ImageJ (v1.53a) software from NIH. […]

MOLT-4 T-ALL cells = assay: Potency against MOLT-4 T-ALL cells in vitro; format: cell-based; details: Homo sapiens
BCL-xL and BCL-2 = system: BCL-xL and BCL-2; design: method as in Khan S et al. Nat Med, 25: 1938-1947, 2019; details: ref Khan S et al. Nat Med, 25: 1938-1947, 2019; cited from earlier work

CC1(C)CCC(c2ccc(Cl)cc2)=C(CN2CCN(c3ccc(C(=O)NS(=O)(=O)c4ccc(N[C@H](CCN5CCOCC5)CSc5ccccc5)c(S(=O)(=O)C(F)(F)F)c4)cc3)CC2)C1 [ABT263, Navitoclax]
IC50 (RS4 B-ALL cells): 38 nM | IC50 (human platelets): 310 nM | Effect of pretreatment on degradation of BCL-xL and BCL-2 with WH244 (BCL-xL/BCL-2; two hours pretreatment, then six-hour WH244, Jurkat cells): completely blocked | IC50 (MOLT-4 T-ALL cells): 220 nM

CC(C)C[C@@H](C=O)NC(=O)[C@H](CC(C)C)NC(=O)[C@H](CC(C)C)NC(=O)OCc1ccccc1 [MG132] (Cbz-Leu-Leu-Leu-aldehyde)
Effect of proteasome / NEDD8-activating enzyme inhibition on WH244-mediated degradation of BCL-xL and BCL-2 (BCL-xL/BCL-2): abrogated

Cc1ncsc1-c1ccc([C@H](C)NC(=O)[C@@H]2C[C@@H](O)CN2C(=O)[C@@H](NC(=O)CCCCCC(=O)N2CCN(CC[C@H](CSc3ccccc3)Nc3ccc(S(=O)(=O)NC(=O)c4ccc(N5CCN(CC6=C(c7ccc(Cl)cc7)CCC(C)(C)C6)CC5)cc4)cc3S(=O)(=O)C(F)(F)F)CC2)C(C)(C)C)cc1 [DT2216]
Reduction in binding affinity to BCL-xL and BCL-2 on converting ABT263 into DT2216 (BCL-xL and BCL-2): about 8 fold

NS(=O)(=O)OC[C@@H]1C[C@@H](n2ccc3c(N[C@H]4CCc5ccccc54)ncnc32)C[C@@H]1O [MLN4924]
Effect of proteasome / NEDD8-activating enzyme inhibition on WH244-mediated degradation of BCL-xL and BCL-2 (BCL-xL/BCL-2): abrogated
